This is an account of results in patent publication US20260151403A1, “NEK7 DEGRADERS AND METHODS OF USE THEREOF” (Captor Therapeutics S.A., priority 2022, published 2026).

The target in test [1] is [NEK7]-[compound of formula (I)]-[CRBN/DDB1] complex (Homo sapiens, UniProt Q8TDX7+Q96SW2). The test can be described thus: HTRF ternary complex assay. To be noted: dose-response, 180 min at 25° C.; read-out: HTRF ternary complex Average pEC50 by molecule (converted). Type of test: binding. The method, boiled down: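 Mix of 24 nM NEK7, 52.8 nM 6×His-CRBN/Strep-DDB1, 3 nM streptavidin-Eu cryptate and 6.67 nM anti-6×His-d2 in PPI Europium detection buffer with 1 mM DTT, dose-response compound, 0.5% DMSO, 180 min at 25° C. TR-FRET (665/620) read, normalized to DMSO background, Hill-slope fit gave EC50/pEC50.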
Sequence of [NEK7]-[compound of formula (I)]-[CRBN/DDB1] complex (Q8TDX7 whole entry): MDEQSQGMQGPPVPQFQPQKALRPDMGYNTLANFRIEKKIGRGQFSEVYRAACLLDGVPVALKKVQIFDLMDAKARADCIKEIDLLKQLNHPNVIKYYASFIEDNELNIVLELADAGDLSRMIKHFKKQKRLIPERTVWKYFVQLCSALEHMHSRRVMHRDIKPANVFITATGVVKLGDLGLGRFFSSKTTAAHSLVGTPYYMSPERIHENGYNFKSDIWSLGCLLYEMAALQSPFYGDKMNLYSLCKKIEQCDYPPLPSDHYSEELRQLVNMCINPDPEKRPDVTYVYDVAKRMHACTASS
Sequence of [NEK7]-[compound of formula (I)]-[CRBN/DDB1] complex (Q96SW2 whole entry): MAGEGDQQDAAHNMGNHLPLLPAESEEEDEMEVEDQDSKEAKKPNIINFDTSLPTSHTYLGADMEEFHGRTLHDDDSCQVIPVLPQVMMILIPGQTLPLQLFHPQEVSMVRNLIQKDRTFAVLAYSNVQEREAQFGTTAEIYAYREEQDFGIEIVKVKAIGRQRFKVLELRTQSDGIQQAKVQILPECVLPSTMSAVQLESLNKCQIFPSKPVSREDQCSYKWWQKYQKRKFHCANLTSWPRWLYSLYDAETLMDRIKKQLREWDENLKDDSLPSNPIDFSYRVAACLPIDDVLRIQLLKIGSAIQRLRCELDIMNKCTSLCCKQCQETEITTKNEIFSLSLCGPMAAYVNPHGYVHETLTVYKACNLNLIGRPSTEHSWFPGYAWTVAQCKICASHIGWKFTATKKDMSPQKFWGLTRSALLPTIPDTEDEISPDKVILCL
Sequence of [NEK7]-[compound of formula (I)]-[CRBN/DDB1] complex (Q16531 whole entry partner): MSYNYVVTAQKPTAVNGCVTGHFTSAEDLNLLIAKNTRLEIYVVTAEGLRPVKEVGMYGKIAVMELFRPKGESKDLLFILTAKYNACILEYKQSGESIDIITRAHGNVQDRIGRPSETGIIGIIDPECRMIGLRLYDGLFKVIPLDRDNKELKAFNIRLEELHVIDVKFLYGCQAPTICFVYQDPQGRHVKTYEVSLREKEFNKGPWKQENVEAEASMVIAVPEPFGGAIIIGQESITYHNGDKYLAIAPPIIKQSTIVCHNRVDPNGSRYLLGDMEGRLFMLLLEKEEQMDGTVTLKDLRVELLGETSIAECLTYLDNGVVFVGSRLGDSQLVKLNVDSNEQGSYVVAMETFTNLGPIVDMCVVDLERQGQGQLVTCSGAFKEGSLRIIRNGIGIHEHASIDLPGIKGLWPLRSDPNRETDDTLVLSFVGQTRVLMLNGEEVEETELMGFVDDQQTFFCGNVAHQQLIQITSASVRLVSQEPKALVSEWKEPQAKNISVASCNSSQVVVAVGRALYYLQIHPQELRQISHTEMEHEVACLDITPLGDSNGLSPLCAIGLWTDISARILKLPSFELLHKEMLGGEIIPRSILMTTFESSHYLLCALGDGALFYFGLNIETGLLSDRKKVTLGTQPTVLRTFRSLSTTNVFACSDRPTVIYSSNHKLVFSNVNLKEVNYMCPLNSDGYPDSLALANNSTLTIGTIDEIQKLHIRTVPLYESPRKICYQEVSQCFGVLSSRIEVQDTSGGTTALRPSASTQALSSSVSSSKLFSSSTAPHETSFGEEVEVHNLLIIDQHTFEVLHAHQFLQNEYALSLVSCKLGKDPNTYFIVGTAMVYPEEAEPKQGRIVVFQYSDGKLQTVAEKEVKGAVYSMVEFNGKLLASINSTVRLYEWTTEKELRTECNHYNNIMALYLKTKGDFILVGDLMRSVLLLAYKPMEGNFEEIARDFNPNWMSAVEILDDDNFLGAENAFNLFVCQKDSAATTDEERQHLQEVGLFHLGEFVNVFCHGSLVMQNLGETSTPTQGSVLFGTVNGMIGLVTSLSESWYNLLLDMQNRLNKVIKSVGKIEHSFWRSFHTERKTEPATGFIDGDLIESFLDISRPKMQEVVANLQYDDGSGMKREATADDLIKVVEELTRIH

A further test deals with NEK7 protein (Homo sapiens, UniProt Q8TDX7+Q96SW2). The test can be described thus: NEK7 protein degradation determined by Western blot in human PBMC-derived macrophages. Type of test: cell-based. The settings on record: 24 h; for remaining NEK7 protein amount at 10 µM: densitometric values normalized to loading control, read-out: Amount of NEK7 protein (% of DMSO control); for NEK7 protein degradation (Western blotting, in words): FIG. 1. On the procedure: (§1) Macrophages were differentiated from human PBMCs isolated from buffy coats from healthy donors.
Sequence of NEK7 protein (Q8TDX7 whole entry): as the sequence (Q8TDX7 whole entry) above
Sequence of NEK7 protein (Q96SW2 whole entry): as the sequence (Q96SW2 whole entry) above
Sequence of NEK7 protein (Q16531 whole entry partner): as the sequence (Q16531 whole entry partner) above
(§2) Buffy coats were diluted 1:1 (v/v) with DPBS (Sigma-Aldrich) in falcon tubes. After reconstitution, suspension was carefully layered on Histopaque-1077 solution (Sigma-Aldrich) and centrifuged (760×g, RT, 20 min; Brakes Off). PBMCs were collected and washed with DPBS (3× at 350×g, RT, 8 min and 1× at 200×g, RT, 10 min; Brakes On). Subsequently, cells were resuspended in appropriate volume of RPMI 1640 medium (Gibco) supplemented with 10% of heat-inactivated FBS (Gibco) and 1% of Penicillin-Streptomycin Solution 100x (Biowest). Cell viability was measured using trypan blue solution (Sigma-Aldrich).
(§3) 10×10^6 of PBMCs per well were seeded on 6-well plates in complete medium supplemented with 10 ng/ml of M-CSF growth factor (R&D Systems). Differentiation was conducted for a week with medium replacement every 2-3 days. Differentiation of PBMCs into mature macrophages was confirmed by microscopic evaluation and FACS surface staining for the following markers: CD11b, CD14, CD16 (BD Pharmingen). Differentiated macrophages were subjected on NLRP3 inflammasome activation assay.
(§4) Human PBMC-derived macrophages were pre-treated for 24 h with exemplary compounds at the specific concentrations. Dilutions of tested compound were prepared in DMSO. Afterwards cells were primed with 1 μg/ml of LPS (Invivogen) for 3 h and NLRP3 inflammasomes were activated with 5 μM of nigericin solution (Invivogen) for 1 h. Supernatants were centrifuged and stored for ELISA assays and cell lysates were prepared for Western blotting analysis.
Cell lysates from Human PBMC-derived macrophages were prepared by direct lysis in 40 μl RIPA lysis buffer (50 mM Tris·HCl pH 7.4, 150 mM NaCl, 1% NP-40, 0.25% sodium deoxycholate, 0.1% SDS and 1 mM EDTA) supplemented with protease and phosphatase inhibitors (cOmplete EDTA-free Protease Inhibitor Cocktail, Roche; Halt™ Phosphatase Inhibitor Cocktail, Thermo Scientific). Subsequently, lysates were snap frozen in liquid nitrogen and stored in −20° C. Following thawing, lysates were centrifuged at 4° C., 19 000×g for 15 min for supernatants collection. The protein concentration in each sample was determined by BCA method (Pierce BCA Protein Assay Kit, Thermo Fischer Scientific). The absorbance was measured using CLARIOstar Multimode Plate Reader at 562 nm. SDS-PAGE samples were prepared by mixing the lysates with 5×SB and RIPA buffer. Denaturation of the samples was performed by incubation at 95° C. for 5 minutes.
The protein samples were resolved on 4-20% TGX Stain-Free™ protein gels (Bio-Rad) and transferred onto nitrocellulose membranes (Bio-Rad) using Trans-Blot® Turbo system (Bio-Rad). Membranes were blocked in 5% non-dried milk (NFM) in TBS-T (10 mM Tris, 150 mM NaCl, 0.1% Tween-20) for 1 h at room temperature (RT). Membranes were incubated with primary antibodies for NEK7 (O/N, 4° C.) and loading control—β-Actin (1 h, RT) diluted in 5% NFM in TBS-T, followed by incubation with the appropriate horseradish peroxidase (HRP) conjugated secondary antibody diluted in 5% NFM in TBS-T for 1 h in RT. Between each antibody incubation, the membranes were washed in TBS-T. Membranes were developed using SuperSignal West Pico PLUS chemiluminescent substrate (ThermoScientific). Membrane images were captured using Chemi Doc Imager. The analysis was performed in Image Lab software. Densitometric values for NEK7 protein were normalized to the loading control and calculated as a relative to the cells treated with DMSO control.
NEK7-HiBiT degradation results were further confirmed for selected compounds in human PBMC-derived macrophages.
For orientation: A western blot detects proteins with antibodies after separation by electrophoresis.

For test [2], the system named is IL-1β release (NLRP3 inflammasome activation). Kind of test: NLRP3 inflammasome activation assay, IL-1β release (ELISA) in human PBMC-derived macrophages. The class given is cell-based. To be noted: 10 μM, 24 h pre-treatment, then LPS 3 h and nigericin 1 h. On the procedure:
as §1, §2, §3, §4
(§5) IL-1β and IL-18 level was quantified using ELISA assays (R&D Systems) according to the manufacturer's protocol. 96-well plates were coated overnight with appropriate capture antibodies. Plates were blocked and incubated at RT for a minimum of 1 h. Samples or standards were added and incubated for 2 h in RT. Next, biotinylated anti-human IL-1β or IL-18 detection antibodies were added for 2 h in RT. Strepatividin-HRP solution was added for 20 min of incubation. Subsequently, substrate solution was added for 20 min. Between each step washing procedure was performed. The reaction was stopped, and optical density was determined using CLARIOstar Multimode Plate reader set to 450 nm with wavelength correction set to 570 nm. The analysis was performed with GraphPad Prism Software and Excel spreadsheet.
(§6) To evaluate compound effect on inflammasome activation (measured as IL-1β and IL-18 release), human PBMC-derived macrophages were treated with individual compounds for 24 h prior to inflammasome activation. As shown in the Table 4 and in FIGS. 2A and 2B, after 24 h of pre-treatment with exemplary compounds, a dose-dependent decrease of cytokines level was noted.

For test [3], the system named is IL-18 release (NLRP3 inflammasome activation). Kind of test: NLRP3 inflammasome activation assay, IL-18 release (ELISA) in human PBMC-derived macrophages. Type of test: cell-based. To be noted: 10 μM, 24 h pre-treatment, then LPS 3 h and nigericin 1 h. How it is done: as §1, §2, §3, §4, §5, §6
(An ELISA detects its analyte on a solid surface through an enzyme-linked reagent.)

Take `O=C1CCC(N2Cc3cc(-c4ccccn4)ccc3C2=O)C(=O)N1` (stereo not drawn) [2(2), 3-(1-oxo-5-(pyridin-2-yl)isoindolin-2-yl)piperidine-2,6-dione]: in test [1], the EC50 was 316 to 1000 nM. Further, the remaining NEK7 protein amount at 10 µM on NEK7 protein fell in the range of 40 to 75%.

For `O=C1CCC(N2Cc3cc(-c4ccc(-c5ccccc5)cn4)ccc3C2=O)C(=O)N1` (stereo not drawn) [4(2), 3-(1-oxo-5-(5-phenylpyridin-2-yl)isoindolin-2-yl)piperidine-2,6-dione], the EC50 in test [1] was 100 to 316 nM. The remaining NEK7 protein amount at 10 µM on NEK7 protein fell in the range of 40 to 75%. For the same compound, in test [2], the “Level of released IL-1β (% of DMSO control)” value is “D (Levels of released cytokines ≥ 75%)”. For the same compound, the “Level of released IL-18 (% of DMSO control)” value in test [3] is “B (Levels of released cytokines > 25% and ≤50%)”.

For the compound `O=C1CCC(N2Cc3cc(C4CCCCN4)ccc3C2=O)C(=O)N1` (stereo not drawn) [Compound 2, 3-(1-oxo-5-(piperidin-2-yl)isoindolin-2-yl)piperidine-2,6-dione], the EC50 in test [1] was 316 to 1000 nM. Further, at NEK7 protein, the remaining NEK7 protein amount at 10 µM was in the range of 10 to 40% and the “NEK7 protein degradation (Western blotting, in words)” value is reported as “NEK7 protein degradation”. Further, the “Level of released IL-1β (% of DMSO control)” value in test [2] is “B (Levels of released cytokines > 25% and ≤50%)”. Moreover, the “Level of released IL-18 (% of DMSO control)” value in test [3] was “A (Levels of released cytokines ≤ 25%)”.

For the compound `Cc1c(C2CCCCN2)ccc2c1CN(C1CCC(=O)NC1=O)C2=O` (stereo not drawn) [Compound 19, 3-(4-methyl-1-oxo-5-(piperidin-2-yl)isoindolin-2-yl)piperidine-2,6-dione], the EC50 in test [1] is over 3160 nM. The remaining NEK7 protein amount at 10 µM on NEK7 protein fell in the range of 40 to 75%. For the same compound, in test [2], the “Level of released IL-1β (% of DMSO control)” value was “C (Levels of released cytokines > 50% and <75%)”. Moreover, the “Level of released IL-18 (% of DMSO control)” value in test [3] was “C (Levels of released cytokines > 50% and <75%)”.

As for `O=C1CCC(N2Cc3cc(C4CCCCN4)c(F)cc3C2=O)C(=O)N1` (stereo not drawn) [Compound 23, 3-(6-fluoro-1-oxo-5-(piperidin-2-yl)isoindolin-2-yl)piperidine-2,6-dione], the EC50 in test [1] is over 3160 nM. Also, on NEK7 protein, the remaining NEK7 protein amount at 10 µM lay in the range of 40 to 75%.

Take `CC1c2cc(C3CCCCN3)ccc2C(=O)N1C1CCC(=O)NC1=O` (stereo not drawn) [Compound 25, 3-(3-methyl-1-oxo-5-(piperidin-2-yl)isoindolin-2-yl)piperidine-2,6-dione]: the EC50 in test [1] is 316 to 1000 nM. Further, at NEK7 protein, the remaining NEK7 protein amount at 10 µM is at most 10% and the “NEK7 protein degradation (Western blotting, in words)” value was “NEK7 protein degradation”. Further, the “Level of released IL-1β (% of DMSO control)” value in test [2] is reported as “A (Levels of released cytokines ≤ 25%)”. Also, the “Level of released IL-18 (% of DMSO control)” value in test [3] is given as “A (Levels of released cytokines ≤ 25%)”.

For `CC1c2cc(C3CCCCO3)ccc2C(=O)N1C1CCC(=O)NC1=O` (stereo not drawn) [Compound 64, 3-(3-methyl-1-oxo-5-(tetrahydro-2H-pyran-2-yl)isoindolin-2-yl)piperidine-2,6-dione], the EC50 in test [1] is 316 to 1000 nM. Besides, at NEK7 protein, the remaining NEK7 protein amount at 10 µM is at most 10% and the “NEK7 protein degradation (Western blotting, in words)” value is listed as “NEK7 protein degradation”. Also, the “Level of released IL-1β (% of DMSO control)” value in test [2] is reported as “A (Levels of released cytokines ≤ 25%)”. For the same compound, in test [3], the “Level of released IL-18 (% of DMSO control)” value is “A (Levels of released cytokines ≤ 25%)”.
